According to patent publication US20260130933A1, “PHARMACEUTICAL COMPOSITION FOR PREVENTION OR TREATMENT OF NEPHROPATHY AND/OR DIABETES MELLITUS, COMPRISING ENAVOGLIFLOZIN” (DAEWOONG PHARMACEUTICAL CO., LTD., priority 2022, published 2026):

Experiment: Example 3: phase 3 trial, enavogliflozin 0.3 mg vs dapagliflozin 10 mg once a day for 24 weeks added to metformin and gemigliptin in patients with type 2 diabetes (same endpoints, rescue drug)
Format: in vivo, human
Procedure: 1) when Metformin (≥1,000 mg/Day) was Administered at a Constant Dose for at Least 8 Weeks Prior to Pre-Visit (Pre-Screening) • Metformin (≥1,000 mg/day) and gemigliptin (50 mg/day) were co-administered during the 8-week stabilization period. […] 4) when Metformin (≥1,000 mg/Day) and Gemigliptin (50 mg/Day) were Co-Administered at Constant Doses for at Least 8 Weeks Prior to Pre-Visit (Prescreening) • Without a separate stabilization period, Pre-visit (pre-screening) was Visit 1 (screening).
Subjects who met the inclusion/exclusion criteria continued to receive metformin and gemigliptin while receiving a placebo of the clinical trial drug in a single-blind (subject-blinded) state for a 2-week run-in period.
Here, the randomized subjects were stratified according to the administration therapy (co-administration with two or less agents (one or two agents) or three or more agents) of a conventional hypoglycemic agent (before washout of another hypoglycemic agent) within 24 weeks prior to obtaining written informed consent and by an HbA1c value (<8% or ≥8%) at Visit 1 (screening) measured in the central laboratory.
The randomized subjects were administered two tablets of the clinical trial drug corresponding to each administration group once a day, and then visited the institution at weeks 6, 12, 18, and 24 during the 24-week administration period to conduct efficacy and safety assessments. In addition, during the clinical trial period, they were instructed to exercise regularly and control their diet without changing their daily life patterns.
• 1) Change in HbA1c at week 24 after administration of clinical trial drug compared to Visit 2 (randomization)
• 1) Change in HbA1c at each time point of weeks 6, 12, and 18 after administration of clinical trial drug compared to Visit 2 (randomization) • 2) Change in FPG at each time point of weeks 6, 12, 18, and 24 after administration of clinical trial drug compared to Visit 2 (randomization) • 3) Proportion of subjects achieving HbA1c<7% at each time point of weeks 6, 12, 18, and 24 after administration of clinical trial drug • 4) Proportion of subjects achieving HbA1c<6.5% at each time point of weeks 6, 12, 18, and 24 after administration of clinical trial drug • 5) Proportion of subjects achieving therapeutic response (HbA1c change (HbA1c at Visit 2—HbA1c at each evaluation time point)>0.5% or HbA1c<7% at each evaluation time point compared to Visit 2 (randomization)) at each time point of weeks 6, 12, 18, and 24 after administration of clinical trial drug • 6) Proportion of subjects achieving therapeutic response (HbA1c change (HbA1c at Visit 2—HbA1c at each evaluation time point)>0.7% or HbA1c<7% at each evaluation time point compared to Visit 2 (randomization)) at each time point of weeks 6, 12, 18, and 24 after administration of clinical trial drug • 7) Proportion of subjects achieving therapeutic response (HbA1c change (HbA1c at Visit 2—HbA1c at each evaluation time point)>1% or HbA1c<7% at each evaluation time point compared to Visit 2 (randomization)) at each time point of weeks 6, 12, 18, and 24 after administration of clinical trial drug

[1] = week 6, modified per-protocol set 1, enavogliflozin 0.3 mg, dapagliflozin 10 mg
[2] = week 6, modified per-protocol set 2
[3] = week 6, modified per-protocol set 2, enavogliflozin 0.3 mg, dapagliflozin 10 mg
[4] = week 6, per-protocol set, enavogliflozin 0.3 mg, dapagliflozin 10 mg

Which results are given for `CCOc1ccc(Cc2cc([C@@H]3O[C@H](CO)[C@@H](O)[C@H](O)[C@H]3O)ccc2Cl)cc1` [Dapagliflozin, reference compound]?
HbA1c, Mean (SD) (Baseline, PPS): 7.83%; HbA1c, Median (Baseline, PPS): 7.64%; HbA1c change from baseline, ANCOVA LS mean (SE) (Week 24, PPS): −0.86 % p; HbA1c change from baseline, Mean (SD) (Week 24, PPS): −0.89 % p; HbA1c change from baseline, Median (Week 24, PPS): −0.86 % p; HbA1c, Mean (SD) (Week 24, PPS): 6.94%; HbA1c, Median (Week 24, PPS): 6.81%; FPG change from baseline, LS mean (SE) (week 6): −22.71(1.39) mg/dL; HDL-C change from baseline, LS mean (SE) (week 6): 1.13(0.56) mg/dL; HOMA-IR change from baseline, LS mean (SE) (week 6): −0.99(0.14); HOMA-β change from baseline, LS mean (SE) (week 6): 3.20(3.04); HbA1c change from baseline, LS mean (SE) (week 6): −0.70(0.03) % p; LDL-C change from baseline, LS mean (SE) (week 6): 1.91(1.78) mg/dL; UACR change from baseline, LS mean (SE) (week 6): −14.85(3.36) g/kg; UGCR change from baseline, LS mean (SE) (week 6): 45.75(2.14) mg/mg; adiponectin change from baseline, LS mean (SE) (week 6): 0.37(0.33) μg/mL; body weight change from baseline, LS mean (SE) (week 6): −1.80(0.16) kg; diastolic blood pressure change from baseline, LS mean (SE) (week 6): −1.88(0.67) mmHg; fasting C-peptide change from baseline, LS mean (SE) (week 6): −0.04(0.02) ng/mL; leptin change from baseline, LS mean (SE) (week 6): −2.03(0.45) ng/mL; systolic blood pressure change from baseline, LS mean (SE) (week 6): −3.49(0.87) mmHg; total cholesterol change from baseline, LS mean (SE) (week 6): 2.63(1.93) mg/dL; triglyceride change from baseline, LS mean (SE) (week 6): −5.39(4.38) mg/dL; Change from baseline in HDL-C, ANCOVA LS mean [1]: 1.13 mg/dL; Change from baseline in HDL-C, Mean [1]: 0.94 mg/dL; Change from baseline in HDL-C, Median [1]: 1.00 mg/dL; Change from baseline in LDL-C, ANCOVA LS mean [1]: 1.91 mg/dL; Change from baseline in LDL-C, Mean [1]: 1.40 mg/dL; Change from baseline in LDL-C, Median [1]: 1.00 mg/dL; Change from baseline in total cholesterol, ANCOVA LS mean [1]: 2.63 mg/dL; Change from baseline in total cholesterol, Mean [1]: 1.55 mg/dL; Change from baseline in total cholesterol, Median [1]: 2.00 mg/dL; Change from baseline in triglycerides, ANCOVA LS mean [1]: -5.39 mg/dL; Change from baseline in triglycerides, Mean [1]: -10.00 mg/dL; Change from baseline in triglycerides, Median [1]: 1.00 mg/dL; Fasting HDL-C, Mean [1]: 48.39 mg/dL; Fasting HDL-C, Median [1]: 48.00 mg/dL; Fasting LDL-C, Mean [1]: 78.50 mg/dL; Fasting LDL-C, Median [1]: 70.00 mg/dL; Fasting total cholesterol, Mean [1]: 145.04 mg/dL; Fasting triglycerides, Mean [1]: 121.81 mg/dL; Fasting triglycerides, Median [1]: 98.00 mg/dL; fasting Total cholesterol, Median [1]: 136.00 mg/dL; Change from baseline in diastolic blood pressure, ANCOVA LS mean [2]: −1.88 mmHg; Change from baseline in diastolic blood pressure, Mean [2]: −1.57 mmHg; Change from baseline in diastolic blood pressure, Median [2]: −2.00 mmHg; Diastolic blood pressure, Mean [2]: 72.20 mmHg; Diastolic blood pressure, Median [2]: 72.00 mmHg; Change from baseline in systolic blood pressure, ANCOVA LS mean [3]: −3.49 mmHg; Change from baseline in systolic blood pressure, Mean [3]: −3.23 mmHg; Change from baseline in systolic blood pressure, Median [3]: −3.50 mmHg; Systolic blood pressure, Mean [3]: 120.64 mmHg; Systolic blood pressure, Median [3]: 119.00 mmHg; Adiponectin, Mean (week 6, per-protocol set): 6.69 µg/mL; Adiponectin, Median (week 6, per-protocol set): 5.80 µg/mL; Change from baseline in HOMA-IR, ANCOVA LS mean (week 6, per-protocol set): −0.99; Change from baseline in HOMA-IR, Mean (week 6, per-protocol set): −0.92; Change from baseline in HOMA-IR, Median (week 6, per-protocol set): −0.72; Change from baseline in HOMA-β, ANCOVA LS mean (week 6, per-protocol set): 3.20; Change from baseline in HOMA-β, Mean (week 6, per-protocol set): 4.48; Change from baseline in HOMA-β, Median (week 6, per-protocol set): 5.30; Change from baseline in UACR, ANCOVA LS mean (week 6, per-protocol set): -14.85 g/kg; Change from baseline in UACR, Mean (week 6, per-protocol set): -7.25 g/kg; Change from baseline in UACR, Median (week 6, per-protocol set): -0.40 g/kg; Change from baseline in UGCR, ANCOVA LS mean (week 6, per-protocol set): 45.75 mg/mg; Change from baseline in UGCR, Mean (week 6, per-protocol set): 43.58 mg/mg; Change from baseline in UGCR, Median (week 6, per-protocol set): 42.62 mg/mg; Change from baseline in adiponectin, ANCOVA LS mean (week 6, per-protocol set): 0.37 µg/mL; Change from baseline in adiponectin, Mean (week 6, per-protocol set): 0.31 µg/mL; Change from baseline in adiponectin, Median (week 6, per-protocol set): 0.34 µg/mL; Change from baseline in leptin, ANCOVA LS mean (week 6, per-protocol set): -2.03 ng/mL; Change from baseline in leptin, Mean (week 6, per-protocol set): -2.04 ng/mL; Change from baseline in leptin, Median (week 6, per-protocol set): -1.26 ng/mL; HOMA-IR (insulin resistance), Mean (week 6, per-protocol set): 1.90; HOMA-IR (insulin resistance), Median (week 6, per-protocol set): 1.66; HOMA-β (beta-cell function), Mean (week 6, per-protocol set): 44.56; HOMA-β (beta-cell function), Median (week 6, per-protocol set): 36.75; Leptin, Mean (week 6, per-protocol set): 8.78 ng/mL; Leptin, Median (week 6, per-protocol set): 7.03 ng/mL; UACR, Mean (week 6, per-protocol set): 23.20 g/kg; UACR, Median (week 6, per-protocol set): 11.20 g/kg; UGCR, Mean (week 6, per-protocol set): 45.12 mg/mg; UGCR, Median (week 6, per-protocol set): 43.37 mg/mg; Body weight, Mean [4]: 65.20 kg; Change from baseline in FPG, ANCOVA LS mean [4]: -22.71 mg/dL; Change from baseline in FPG, Mean [4]: -22.87 mg/dL; Change from baseline in FPG, Median [4]: -18.50 mg/dL; Change from baseline in HbA1c, ANCOVA LS mean [4]: −0.70 % p; Change from baseline in HbA1c, Mean [4]: −0.72 % p; Change from baseline in HbA1c, Median [4]: −0.65 % p; Change from baseline in body weight, ANCOVA LS mean [4]: -1.80 kg; Change from baseline in body weight, Mean [4]: -1.68 kg; Change from baseline in body weight, Median [4]: -1.55 kg; Change from baseline in fasting C-peptide, ANCOVA LS mean [4]: -0.04 ng/mL; Change from baseline in fasting C-peptide, Mean [4]: -0.04 ng/mL; Change from baseline in fasting C-peptide, Median [4]: -0.03 ng/mL; FPG, Mean [4]: 117.64 mg/dL; FPG, Median [4]: 116.50 mg/dL; Fasting C-peptide, Mean [4]: 0.65 ng/mL; Fasting C-peptide, Median [4]: 0.63 ng/mL; HbA1c, Mean [4]: 7.10%
